Measured values from US7671052B2 (priority 2004, dated 2010).
Where two headings read alike, the source gives them in different places.

Columns and labels:
Male ICR mice = assay: Catalepsy ring test; format: in vivo, mouse; details: for % catalepsy @ 30 mg/kg: 30 mg/kg i.p.; for % catalepsy @ 30 mg/kg / % catalepsy @ 100 mg/kg: 60 or 90 minutes after dosing; for % catalepsy @ 100 mg/kg: 100 mg/kg i.p.
Description: The apparatus consisted of a 5.5 centimeter ring attached to a ring stand at a height of 16 centimeters. Male ICR mice (20-25 g) were placed on the ring 60 or 90 minutes after dosing (i.p.) with test compounds or vehicle. Normal behavior for a mouse would be to walk around and investigate the ring. Catalepsy was shown when the mouse remained motionless. The amount of time (in seconds, in a 5 minute test session) the mouse spent motionless was determined.
Mice that fell or jumped were allowed 5 “escapes”. If 5 “escapes” happened before 2.5 minutes into the test, the data were disregarded. The immobility index (% catalepsy) was determined by the amount of time spent immobile divided by the length of the test (P. Little et al. Pharmac. Biochem. & Behavior 1989, 32, 661-666). Since the CB1 receptor is thought to be responsible for psychoactivity, the catalepsy ring test is an excellent in vivo screen for CB1 activity.

hCB2 [1] = target: T1, hCB2 (Homo sapiens, UniProt P34972); assay: Inhibition of [3H]CP55940 binding to hCB2 receptor membranes
T1 construct: expressed in transfected cells; host or cells: CHO-K1 (Chinese hamster ovary), stably transfected; membrane preparation

hCB1 [2] = target: T2, hCB1 (Homo sapiens, UniProt P21554); assay: hCB1-mediated stimulation of [35S]GTPγS binding; format: biochemical; details: read-out: in vitro CB1 receptor agonist potency (EC50)
T2 construct: expressed in transfected cells; host or cells: CHO-K1 (Chinese hamster ovary), stably transfected; membrane preparation
Description: (§1) Chinese hamster ovary cells (CHO-K1), stably transfected with either hCB1 or hCB2, were washed two times with cold PBS, scraped from 500 cm^2 tissue culture plates, and pelleted by centrifugation at 1000×g for 10 min. The supernatant was discarded and the pellet was re-suspended in Tris assay buffer (50 mM Tris HCl, pH 7.8, containing 1.0 mM EGTA, 5.0 mM MgCl2, 10 μg/mL leupeptin, 10 μg/mL pepstatin A, 200 μg/mL bacitracin, and 0.5 μg/mL aprotinin), homogenized with a Polytron homogenizer (Brinkmann) at a setting of 1 for 20 sec and centrifuged at 38,000×g for 20 min at 4° C. The pellet was re-suspended in Tris assay buffer and aliquots of 1 mg protein/mL were stored at −80° C. for further use.
hCB1-mediated stimulation of [^35S]GTPγS binding was measured in a mixture containing 100-150 pM [^35S]GTPγS, 150 mM NaCl, […], 0.4 mM DTT, 1 mM EGTA, 1 mg/mL fatty acid free BSA, 25 μg of membrane protein and agonist in a total volume of 250 μL of buffer A in 96 well Basic Flashplates (Perkin Elmer). After incubation at room temperature for 2 hours the plates were centrifuged at 800×g at 4° C. for 5 min and the radioactivity bound to the membranes was determined by scintillation spectrometry using the Topcount (Perkin Elmer). […]

hCB2 [3] = target: T1, hCB2; assay: hCB2-mediated stimulation of [35S]GTPγS binding; format: biochemical; details: read-out: in vitro CB2 receptor agonist potency (EC50)
Description: hCB2-mediated [^35S]GTPγS binding was measured in the same way except the assay mixture contained 10 mM GDP and the incubation time was 6 hours. […] After incubation at 30° C. for 2 hours, the plates were centrifuged at 800×g at 4° C. for 5 min and the radioactivity bound to the membrane was determined by scintillation spectrometry using the Topcount (Perkin Elmer).
EC50 values in functional assays were also derived from automated nonlinear regression analysis of sigmoidal titration curves using the three-parameter modification of the four-parameter equation.

hCB1 [4] = target: T2, hCB1; assay: Inhibition of [3H]CP55940 binding to hCB1 receptor membranes; details: human cloned CB1 receptor
Description: as §1
Binding assays were performed by incubating 0.2-0.6 nM (34,000-100,000 dpm) of [^3H]CP55940 with membranes prepared from cells expressing cloned human CB1 or CB2 receptors in buffer A (50 mM Tris HCl, pH 7.0, 5.0 mM MgCl2, 1.0 mM EGTA and 1.0 mg/mL fatty acid free bovine serum albumin). […] The filters were rinsed 6 times with one mL of cold wash buffer (50 mM Tris HCl, pH 7.0, 5.0 mM MgCl2, 1.0 mM EGTA and 0.75 mg/mL fatty acid free bovine serum albumin), 30 μL of MicroScint 20 was added to each filter and the radioactivity on the filters determined by scintillation spectroscopy. Nonspecific binding was determined in the presence of 10 μM WIN55212-2. […]

Male Sprague-Dawley rats = assay: Neuropathic pain assay: L5 spinal nerve ligation, tactile sensitivity (von Frey); format: in vivo, rat; details: L5 SNL rats
Description: Male Sprague-Dawley rats (120-250 g, Harlan Laboratories, Columbus, Ohio) were housed in pairs and allowed free access to food and water throughout the study. Room temperature and humidity were maintained at 21° C. and 70%, respectively. Nerve injury was produced with tight ligation of the left L5 spinal nerve (Kim and Chung, 1992; LaBuda and Fuchs, 2000a, 2000b, LaBuda, Donahue and Fuchs, 2001). Briefly, animals were placed in the prone position to access the left L4-L6 spinal nerves. Under magnification, approximately one third of the L6 transverse process was removed. The L5 spinal nerve was identified and carefully dissected free from the adjacent L4 spinal nerve and then tightly ligated using 6-0 silk suture. The wound was treated with an antiseptic solution, the muscle layer was sutured, and the wound was closed with wound clips. Sham-operated surgical controls were prepared in the same manner, but the L5 spinal nerve was not […]. All housing conditions and experimental procedures were performed in accordance with the ethical guidelines of the IASP and the Adolor Corporation Animal Care and Use Committee.
Seven to ten animals per group were used for all behavioral assays. After a 7-10 day post-surgical recovery, animals were tested for baseline sensitivity to tactile stimulation of both hindpaws. Allodynic animals were defined as animals having a threshold of less than 7.5 grams of pressure applied to the injured hindpaw. Tactile sensitivity was evaluated using von Frey monofilaments before and after treatment. […] Thirty minutes after treatment, tactile sensitivity was evaluated. Five to seven days later, animals were tested using a different compound. Each animal was tested three times with different compounds. All behavioral testing was performed between 9:00 AM and 5:00 PM in a well-illuminated room with white background noise.
Animals were placed in a Plexiglas chamber (20 cm×10.5 cm×40.5 cm) and habituated for 15 minutes. The chamber was positioned on top of a mesh screen so that von Frey monofilaments could be presented to the plantar surfaces of both hindpaws. Measurements of tactile sensitivity for each hindpaw were obtained using the up/down method (Dixon, 1980) with seven von Frey monofilaments (0.04, 0.07, 0.16, 0.4, 1, 6, and 15 grams). Each trial started with a von Frey force of 0.4 g delivered to the right hindpaw and then the left hindpaw for approximately 1-2 sec each. If there was no withdrawal response, the next higher force was delivered. If there was a response, the next lower force was delivered. This procedure was performed until no response was made at the highest force (15 grams) or until four stimuli were administered following the initial response. The 50% paw withdrawal threshold for each paw was calculated using the following formula: [Xth]log=[vFr]log+ky where [vFr] is the force of the last von Frey filament used, k=0.2249 which is the average interval (in log units) between the von Frey monofilaments, and y is a value that depends upon the pattern of withdrawal responses (Dixon, 1980). […] Testing for tactile sensitivity was performed twice and the mean 50% withdrawal value assigned as the tactile sensitivity for the right and left paws for each animal.
Tactile sensitivity for both hindpaws before and after treatments were analyzed using one-way analysis of variance (ANOVA) followed by post-hoc comparisons (protected t-test) for group differences. An alpha level of 0.05 was used for all analyses.

[5] = Table 3, 10 mg/kg, n = 7-8/group
[6] = Table 3, 2.5 mg/kg i.p., n = 7-8/group

T1 sequence (P34972 whole entry): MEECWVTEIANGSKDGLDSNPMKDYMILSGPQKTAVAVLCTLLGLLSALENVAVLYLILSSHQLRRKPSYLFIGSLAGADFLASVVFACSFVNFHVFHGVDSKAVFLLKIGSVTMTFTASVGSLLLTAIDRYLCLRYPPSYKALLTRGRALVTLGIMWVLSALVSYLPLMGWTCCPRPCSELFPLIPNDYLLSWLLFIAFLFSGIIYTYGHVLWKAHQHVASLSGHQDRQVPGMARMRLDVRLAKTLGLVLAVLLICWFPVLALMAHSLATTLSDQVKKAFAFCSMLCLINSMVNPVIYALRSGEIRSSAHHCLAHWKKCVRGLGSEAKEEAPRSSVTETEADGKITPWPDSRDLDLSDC
T2 sequence (P21554 whole entry): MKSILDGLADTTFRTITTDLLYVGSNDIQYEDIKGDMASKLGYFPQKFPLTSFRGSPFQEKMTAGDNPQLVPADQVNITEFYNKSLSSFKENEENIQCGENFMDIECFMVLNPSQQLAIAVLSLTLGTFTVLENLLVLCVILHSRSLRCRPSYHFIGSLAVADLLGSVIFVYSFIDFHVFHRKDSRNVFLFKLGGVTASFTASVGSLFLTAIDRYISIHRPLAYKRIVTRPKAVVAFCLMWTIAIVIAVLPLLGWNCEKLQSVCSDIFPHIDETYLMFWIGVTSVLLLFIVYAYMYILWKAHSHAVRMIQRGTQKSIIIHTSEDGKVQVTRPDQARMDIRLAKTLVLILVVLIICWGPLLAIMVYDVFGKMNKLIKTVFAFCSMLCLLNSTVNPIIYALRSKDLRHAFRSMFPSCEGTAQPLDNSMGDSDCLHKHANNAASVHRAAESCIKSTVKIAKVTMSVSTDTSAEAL

CCNC(=O)NCc1cccc(-c2ccc(C(C)(C)COCCC(=O)N3CCOCC3)cc2O)c1 [Compound 11, 1-{4′-[1,1-Dimethyl-2-(3-morpholin-4-yl-3-oxo-propoxy)-ethyl]-2′-hydroxy-biphenyl-3-yl-methyl}-3-ethyl-urea]
% catalepsy @ 30 mg/kg (Male ICR mice): 6.65 ± 1.87% | % catalepsy @ 100 mg/kg (Male ICR mice): 18.80 ± 3.33%

CCCCOCC(C)(C)c1ccc(-c2ccccc2CNC(=O)NCC)c(O)c1 [Compound 12, 1-[4′-(2-Butoxy-1,1-dimethyl-ethyl)-2′-hydroxy-biphenyl-2-ylmethyl]-3-ethyl-urea]
Ki (hCB2 [1]; human cloned CB2 receptor, read-out: Ki(CB2)): 0.56 nM | EC50 (hCB1 [2]): 15.5 nM | EC50 (hCB2 [3]): 15.2 nM | Ki (hCB1 [4]): 1.6 nM

CCCCOCC(C)(C)c1ccc(-c2cccc(CNC(=O)NCCC)c2)c(O)c1 [Compound 15, 1-[4′-(2-Butoxy-1,1-dimethyl-ethyl)-2′-hydroxy-biphenyl-3-ylmethyl]-3-propyl-urea]
Ki (hCB2 [1]): 0.4 nM | EC50 (hCB1 [2]): 29.1 nM | EC50 (hCB2 [3]): 5.1 nM | Ki (hCB1 [4]): 1.1 nM

CCNC(=O)NCc1cccc(-c2ccc(C(C)(C)COCCOC)cc2O)c1 [Compound 17, 1-Ethyl-3-{2′-hydroxy-4′-[2-(2-methoxy-ethoxy)-1,1-dimethyl-ethyl]-biphenyl-3-ylmethyl}-urea]
% catalepsy @ 30 mg/kg (Male ICR mice): 12.21 ± 2.79% | % catalepsy @ 100 mg/kg (Male ICR mice): 47.93 ± 5.98%

CCNC(=O)NCc1cccc(-c2ccc(C(C)(C)CCCCC(=O)N3CCOCC3)cc2O)c1 [Compound 20, 1-[4′-(1,1-Dimethyl-6-morpholin-4-yl-6-oxo-hexyl)-2′-hydroxy-biphenyl-3-yl-methyl]-3-ethyl-urea]
Threshold (Male Sprague-Dawley rats; Table 2, 10 mg/kg i.p., n = 8): 12.16 ± 2.41 g | Threshold (Male Sprague-Dawley rats; Table 2, 30 mg/kg i.p., n = 8): 12.02 ± 2.54 g | Threshold (Male Sprague-Dawley rats; Table 3, 3 mg/kg, n = 7-8/group): 9.14 ± 3.36 g | Threshold (Male Sprague-Dawley rats; [5]): 16.69 ± 1.19 g | % catalepsy @ 30 mg/kg (Male ICR mice): 3.07 ± 1.15% | % catalepsy @ 100 mg/kg (Male ICR mice): 5.05 ± 1.81%

CCNC(=O)NCc1cccc(-c2ccc(C(C)(C)CCCNC(=O)C(C)(C)C)cc2O)c1 [Compound 35, N-(4-{3′-[(3-Ethyl-ureido)-methyl]-2-hydroxy-biphenyl-4-yl}-4-methyl-pentyl)-2,2-dimethyl-propionamide]
Threshold (Male Sprague-Dawley rats; [5]): 10.96 ± 2.66 g

CC(C)(CCCCC(=O)N1CCOCC1)c1ccc(-c2cccc(CNC(=O)C3CCCO3)c2)c(O)c1 (centres unmarked) [Compound 41, Tetrahydrofuran-2-carboxylic acid [4′-(1,1-dimethyl-6-morpholin-4-yl-6-oxo-hexyl)-2′-hydroxy-biphenyl-3-ylmethyl]-amide]
% catalepsy @ 30 mg/kg (Male ICR mice): 13.07 ± 2.85% | % catalepsy @ 100 mg/kg (Male ICR mice): 58.78 ± 7.95%

CC(C)(CCCCC(=O)N1CCOCC1)c1ccc(-c2cccc(CNS(C)(=O)=O)c2)c(O)c1 [Compound 71]
% catalepsy @ 30 mg/kg (Male ICR mice): 3.38 ± 2.75% | % catalepsy @ 100 mg/kg (Male ICR mice): 24.65 ± 3.36%

Cc1c(C(=O)c2cccc3ccccc23)c2cccc3c2n1[C@H](CN1CCOCC1)CO3 [WIN+, WIN55,212-2, reference compound]
Threshold (Male Sprague-Dawley rats; [6]): 15.03 ± 1.70 g | % catalepsy (Male ICR mice; WIN @ 10 mg/kg i.p.): 51.64 ± 2.69%

Cc1c(C(=O)c2cccc3ccccc23)c2cccc3c2n1[C@@H](CN1CCOCC1)CO3 [WIN−, WIN55,212-3, reference compound]
Threshold (Male Sprague-Dawley rats; [6]): 6.25 ± 1.19 g
